Patent US20240366596A1, “TREATMENT OF HFPEF IN POST-MENOPAUSAL WOMEN WITH AN SGC STIMULATOR” (Cyclerion Therapeutics, Inc., priority 2021, published 2024)
Where two headings read alike, the source gives them in different places.

Legend:
[1] = tested on: patients with chronic HF with HFpEF; details: top-line results; cited from earlier work
[2] = tested on: obese ZSF1 rats; experiment: ZSF1 rat model of diabetic nephropathy with metabolic syndrome; format: in vivo
Source text: All data are plotted as mean±SEM. #p<0.05. ##p<0.01 vs obese control.
Aged ZSF1 rats have also been reported to develop HF consistent with HFpEF. In the ZSF1 model of diabetic nephropathy and metabolic syndrome, olinciguat was renoprotective and associated with lower circulating glucose, cholesterol, and triglycerides, all of which are relevant for this the population of post-menopausal women with HFpEF that tend to show a metabolic phenotype. Also in this model, baseline plasma NT-proBNP levels were similar in all obese ZSF1 groups [obese, group treated with enalapril (ENP), ENP+OLI10 (enalapril+oli at 10 mg/kg), and ENP+OLI30 (enalapril+oli at 30 mg/kg)]. NT-proBNP, analyzed as change from baseline to the end of treatment, increased in the obese control and ENP groups, and decreased in ENP+OLI10 and ENP+OLI30 groups (FIG. 5).

[3] = tested on: Dahl salt-sensitive rat model; experiment: Dahl salt-sensitive (DSS) hypertension rat model of HFpEF; format: in vivo; details: olinciguat 10 mg/kg, FIG. 4
Experimental: All data are plotted as mean±SEM. **p<0.01. ***p<0.001 vs high-salt (HS) control.
The cardioprotective effects of olinciguat were tested in two animal models of HF: the rat post-myocardial infarction (MI) model of heart failure with reduced ejection fraction and in the Dahl salt-sensitive (DSS) hypertension model, which develops HFpEF.

[4] = tested on: normotensive and hypertensive rats; experiment: Blood pressure in normotensive and hypertensive rats; format: in vivo, rat
[5] = tested on: participants with HFpEF; experiment: CAPACITY HFpEF Phase 2 trial of praliciguat: cardiopulmonary exercise testing (CPET); format: in vivo, human
Source text: (§1) A Multicenter, Randomized, Double-Blind, Placebo-Controlled, Phase 2 Study Evaluating the Safety and Efficacy of Different Doses of Praliciguat (IW-1973, Compound I-1) Over 12 Weeks in Patients with Heart Failure with Preserved Ejection Fraction (CAPACITY HFpEF).
The primary objectives of this clinical study (ClinicalTrials.gov Identifier NCT03254485) were to assess the safety of oral praliciguat when administered for approximately 12 weeks to participants with HFpEF, and to evaluate the effect of oral praliciguat on peak exercise capacity (as measured by oxygen consumption [VO2]) when administered for approximately 12 weeks to participants with HFpEF, both in all participants and in participants without permanent or persistent atrial fibrillation.
The primary efficacy endpoint was the change from baseline in peak VO2 as measured by cardiopulmonary exercise testing (CPET) at Week 12 of the Treatment period. CPET was performed at baseline, at Week 8 and again at Week 12 using a highly standardized study-specific protocol. To participate in this study, each study site had to submit 2 studies to the CPET Core Laboratory at Massachusetts General Hospital core laboratory for review, and studies had to be determined to be of adequate quality before the site was deemed CPET qualified. For the 3 CPETs required by the study protocol, each study participant was to use the same form of exercise (treadmill or bicycle) and undergo the CPETs at the same time of day (+2 hours), ≥1 hour after study medication dosing. As part of the procedure, participants exercised to peak capacity beginning with unloaded exercise and continuing with a symptom-limited incremental ramp to peak VO2 with requisite respiratory exchange ratio (RER)≥1. For the baseline CPET, a participant's RER had to be ≥1.0 in order to indicate an adequate test (i.e., adequate effort on the part of the study participant, to try to mitigate stopping for non-cardiopulmonary reasons [e.g., effort-related or musculoskeletal]). Additional CPET-related study eligibility criteria included a peak VO2 of ≤80% of the predicted or age- and sex-adjusted normal level (FLETCHER G F, et al. Exercise standards. A statement for healthcare professionals from the American Heart Association. Writing Group. Circulation. 1995;91 [2]: 580-615), which served as an objective indicator of exercise intolerance characteristic of HF. For the Week 8 and End of Treatment CPETs, participants were to exercise to maximum effort, ideally to RER≥1.0. Analysis of CPET measurements for eligibility and for efficacy analyses were conducted by the independent central CPET Core Lab that was blinded to treatment allocation.
(§2) The pre-specified major secondary endpoints were the change from baseline in 6-minute walk test (6MWT) distance at Week 12, the change from baseline in ventilatory efficiency as defined by VE/VCO2 slope (minute ventilation/volume of carbon dioxide production) as obtained via CPET at Week 12, and the number of CPET responders defined as participants who improved by at least 1.5 mL O2/kg/min in peak VO2 from baseline to Week 12. In the CPET responder analysis, participants who were hospitalized or who died due to heart failure during the study Treatment Period or were missing Week 12 post-dose CPET values were considered to be non-responders.
(§3) This Phase 2, multicenter, randomized, double-blind, placebo-controlled, parallel-group study evaluated the safety and efficacy of praliciguat compared with placebo. The study randomized 196 adults with established heart failure (HF) and limited exercise capacity with an ejection fraction (EF) of at least 40% and who had at least 2 of 4 risk factors for HFpEF (diabetes/prediabetes, hypertension, obesity, and advanced age) (see Inclusion and Exclusion Criteria below).
Dosing on Days 1 to 14 (±3) was 20 mg BID (twice daily). Dosing on Day 15 (±3) onward was 40 mg QD (once daily). […]

[6] = tested on: participants with HFpEF; experiment: CAPACITY HFpEF Phase 2 trial of praliciguat: 6-minute walk test (6MWT); format: in vivo, human
Source text: as §1, §2, §3
Screening Period: The Screening Period started with the signing of the ICF at the Screening Visit and lasted up to 45 days. At the Screening Visit, potential participants underwent screening procedures to determine their initial study eligibility. At the Baseline Visit, participants returned to the clinic for additional screening procedures to confirm their eligibility, including assessment of their CPET values, vital sign measurements, and blood and urine sample collections, and to receive urine sample collection supplies to take home. The Screening Visit could be combined with the Baseline Visit if the participant was fasted for blood and urine collections. CPET and 6MWT were to occur within 14 days before Randomization. The end of the Screening Period coincided with the beginning of the Treatment Period.

[7] = tested on: participants with HFpEF; experiment: CAPACITY HFpEF Phase 2 trial of praliciguat: safety (treatment-emergent adverse events); format: in vivo, human
Source text: as §1
(§4) The primary safety endpoints were based on the incidence of treatment-emergent adverse events (TEAEs) and of TEAEs that were considered study drug-related by the investigator. TEAEs were defined as AEs that started or worsened in severity after administration of study drug. Medical history, prior and concomitant medications and surgeries/procedures, and adverse events (AEs) were collected throughout the study. Physical examination, vital sign measurements including orthostatic blood pressures, clinical laboratory tests, pregnancy tests, and ECGs were performed. Blood was also collected to determine pharmacokinetic (PK) parameters and plasma concentrations of praliciguat.
as §3

[8] = tested on: participants with HFpEF; experiment: CAPACITY HFpEF Phase 2 trial of praliciguat: cardiometabolic endpoints (blood pressure, HbA1c); format: in vivo, human; details: Week 12
Source text: as §1, §4
Other exploratory endpoints included assessment of echocardiographic parameters (as determined by an independent, central echocardiography core laboratory that was blinded to treatment assignment); changes from baseline to Week 12 and Follow-up visits in New York Heart Association (NYHA) functional classification (I, II, III, or IV); cardiac events (hospitalizations of CV etiology and all deaths were analyzed by the central, independent, blinded cardiac events adjudicators who determined if an event was due to heart failure or was of other CV etiology); changes from baseline to Week 12 in blood and urine biomarker levels that are relevant to HF pathophysiology; and changes from baseline to Week 12 in NT-proBNP values, urine albumin creatinine ratios (UACRs), estimated glomerular filtration rates (eGFRs), and HOMA-IR changes. Changes from baseline responses in participants' self-administered health-related quality-of-life (QOL) questionnaires were also tabulated and analyzed, including the Kansas City Cardiomyopathy Questionnaire (KCCQ), the Sheehan Disability Scale (SDS), the EuroQol (EQ) 5D-5L, and the Quick Inventory of Depressive Symptomatology Self-Report 16-item version (QIDS-SR-16).
Whereas the change from baseline relative to placebo in the general population was a reduction of 3.5 mmHg in the systolic blood pressure, this change was 7.9 mmHg reduction for the subpopulation of elderly women. Similarly, whereas the change from baseline relative to placebo in the general population was a reduction of 2.1 mmHg in the diastolic blood pressure, this change was 8.2 mmHg reduction for the subpopulation of elderly women. And also similarly, the change from baseline relative to placebo in the general population was a reduction of 0.18% points in the measurement of HbA1C, this change was 0.41% reduction from baseline relative to placebo for the subpopulation of elderly women

[9] = tested on: subjects with symptomatic HF and an LVEF≥45%; details: women, spironolactone vs placebo, subjects from the Americas; cited from earlier work
[10] = tested on: participants with chronic HF and an ejection fraction (EF) of ≥45% (i.e., HFpEF); details: cited from earlier work
[11] = tested on: participants with chronic HF, an LVEF of at least 45% (i.e., HFpEF); details: cited from earlier work
[12] = tested on: women compared with men with heart failure and preserved ejection fraction; details: cited from earlier work
[13] = 40 mg praliciguat vs placebo, Primary Analytic Population, Week 12
[14] = elderly women (older than 70), 12 weeks of treatment, CPET responder analysis
[15] = women of age > 70, week 12, 40 mg
[16] = women of age > 70, week 12, 40 mg vs placebo
[17] = pooled three highest vericiguat dose arms, 12 weeks, vs placebo

OC[C@H]1O[C@@H](c2ccc(Cl)c(Cc3ccc(O[C@H]4CCOC4)cc3)c2)[C@H](O)[C@@H](O)[C@@H]1O [empagliflozin]
risk for the composite of cardiovascular death or hospitalization for HF compared with placebo [1]: significantly reduced risk

CCOC(=O)[C@H](CCc1ccccc1)N[C@@H](C)C(=O)N1CCC[C@H]1C(=O)O [enalapril, reference compound]
NT-proBNP, change from baseline to the end of treatment ([2]; enalapril alone (ENP group), plasma, FIG. 5): increased

NC(=O)[C@](O)(CNc1nc(-c2cc(-c3ccon3)n(Cc3ccccc3F)n2)ncc1F)C(F)(F)F [olinciguat]
cardioprotection (cardiac weights) [3]: cardioprotective | lung congestion (lung weights) [3]: reduced lung congestion | NT-proBNP levels ([3]; plasma): reduced NT-proBNP levels | circulating cholesterol ([2]; rat, in vivo): lower | circulating glucose ([2]; rat, in vivo): lower | circulating triglycerides ([2]; rat, in vivo): lower | renoprotection ([2]; rat, in vivo): renoprotective | blood pressure [4]: reduced blood pressure

OC(CNc1nc(-c2cc(-c3ccon3)n(Cc3ccccc3F)n2)ncc1F)(C(F)(F)F)C(F)(F)F [praliciguat]
placebo-adjusted LSM difference in change from baseline in peak VO2 [5, 13]: -0.30 mL/min/kg | placebo-adjusted LSM difference in change in ventilation/carbon dioxide production slope [5, 13]: −0.3 | adjusted change from baseline in peak VO2 at Week 12 ([5]; 40 mg praliciguat, Primary Analytic Population (n=65), Week 12): -0.26 mL/min/kg | patients with a higher than 1 mL/O2/kg/min improvement in peak VO2 [5, 14]: About 50% | patients with a higher than 1.5 mL/O2/kg/min improvement in peak VO2 [5, 14]: 35-40% | placebo-adjusted LSM difference in change from baseline in peak VO2 ([5]; post hoc, elderly women (70 years or older), 40 mg praliciguat (n=16) vs placebo (n=18), Week 8): 0.75 mL/min/kg | placebo-adjusted LSM difference in change from baseline in peak VO2 ([5]; post hoc, elderly women (70 years or older), 40 mg praliciguat (n=16) vs placebo (n=18), Week 12): 1.58 mL/min/kg | improvement in peak work load ([5]; sub-population of elderly women, week 12): about 6.5% | worsening in peak work load ([5]; whole population): 1% | Peak Workload LS Mean [5, 15]: 12.6395 Watts | Peak Workload LS Mean Diff [5, 16]: 6.5195 Watts | placebo-adjusted LSM difference in change from baseline in 6MWT distance [6, 13]: −16.7 m | adjusted change in 6-minute walk test (6MWT) distance ([6]; 40 mg praliciguat, Primary Analytic Population, Week 12): 41.4 m | improvement in 6MW vs placebo ([6]; subpopulation of elderly women): 23 meters | Six Minute Walk Test LS Mean [6, 15]: 73.6369 | Six Minute Walk Test LS Mean Diff [6, 16]: 22.7533 | deaths ([7]; 40 mg praliciguat, fatal events considered not related to study drug): One death | participants with at least one TEAE of dizziness ([7]; human, in vivo, 12 weeks): 9.9% | participants with at least one TEAE of headache ([7]; human, in vivo, 12 weeks): 11% | participants with at least one TEAE of hypotension ([7]; human, in vivo, 12 weeks): 8.8% | participants with at least one serious TEAE ([7]; human, in vivo, 12 weeks): 10% | reduction in HbA1C, change from baseline relative to placebo ([8]; general population): 0.18 % points | reduction in diastolic blood pressure, change from baseline relative to placebo ([8]; general population): 2.1 mmHg | reduction in systolic blood pressure, change from baseline relative to placebo ([8]; general population): 3.5 mmHg | reduction in HbA1C, change from baseline relative to placebo ([8]; subpopulation of elderly women): 0.41% | reduction in diastolic blood pressure, change from baseline relative to placebo ([8]; subpopulation of elderly women): 8.2 mmHg | reduction in systolic blood pressure, change from baseline relative to placebo ([8]; subpopulation of elderly women): 7.9 mmHg

CC(=O)S[C@@H]1CC2=CC(=O)CC[C@]2(C)[C@H]2CC[C@@]3(C)[C@@H](CC[C@@]34CCC(=O)O4)[C@H]12 [spironolactone]
all-cause mortality HR [9]: 0.66

COC(=O)Nc1c(N)nc(-c2nn(Cc3ccccc3F)c3ncc(F)cc23)nc1N [vericiguat]
proportion of participants achieving clinically meaningful improvements in KCCQ-clinical summary score ([10]; 10 mg vericiguat compared with placebo arm): larger proportion | change in left atrial volume [10, 17]: NOT different from placebo | change in log NT-proBNP [10, 17]: NOT different from placebo | mean change in the physical limitation score of the KCCQ ([11]; 10-mg group): 6.5 points | mean change in the physical limitation score of the KCCQ ([11]; 15-mg group): 5.5 points

sacubitril-valsartan
rate ratio for sacubitril-valsartan versus valsartan, primary outcome (HF hospitalizations and cardiovascular death) ([12]; men): 1.03 | rate ratio for sacubitril-valsartan versus valsartan, primary outcome (HF hospitalizations and cardiovascular death) ([12]; women): 0.73
